Read-outs that look alike come from different tables or passages of the source. Blank lines part the entries; values can stand above or below the molecule they belong to.
Key:
PCA response = assay: Passive Cutaneous Anaphylaxis (rat PCA); type: in vivo; settings: iv, i.v. just before ovalbumin challenge, male Wistar rats
Protocol: Serum containing heat labile homocytotropic antibody was raised in rats to crystallized ovalbumin XOA by the method of Mota (I. Mota, Immunology, 7, 681 (1964)) using Bordettela pertussis vaccine as adjuvant.
Passive cutaneous anaphylaxis (PCA) was carried out by a method based on that of Ovary and Bier (A. Ovary and O. G. Bier, Proc. Soc. Exp. Biol. Med 81, 584, (1952)) as modified by Goose and Blair.
Male Wistar rats of 250-300 g were given 0.1 ml of each of six twofold serial dilutions of pooled antiserum in 0.9% saline injected intradermally into separate sites on their shaved backs. Later (72 hr) the animals were challenged by intravenous injection of 0.3 ml of a 1% solution of ovalbumin in an isotonic solution of saline buffered with 0.5M, pH 7.2, Sorenson Buffer (PBS), mixed with 0.2 ml of a 5% solution of Pontamine Sky Blue (6BX C.I. 24410, Raymond A. Lamb, London) in isotonic saline. The rats were killed after 20 min and the diameter of the blue wheals at the antibody injection sites was measured on the outer surface of the skin. The starting dilution of the serum was adjusted so that there was no response, after challenge, at the injection site of the highest dilution and a maximum response at the lowest dilutions. Typically six twofold serial dilutions of the serum from 1/4 to 1/128 were used.
Compounds were tested for their ability to reduce the diameter of the wheels at those intradermal sites which in control animals gave less than maximum response. Each dose of the compound was administered intravenously to six rats in isotonic saline, adjusted to pH7 with sodium bicarbonate if necessary (2ml/kg body weight) just before intravenous challenge with ovalbumin. Control groups of six animals were given the same volume of carrier fluid at the same time.
The results were calculated as follows. % inhibition of PCA=100 (1 - a/b) where a=the sum of the diameters of the wheals produced in the test animal at the sites of antibody dilutions as used in control groups and b=the mean sum of the diameters of the wheals produced in the control group of animals at those antibody sites where at least five out of six of the animals gave less than maximum response. A typical variation in the control group of animals was SEN±6%.
The dose of the compound required to inhibit the PCA response by 50% was obtained from the log dose-response curve.

[1] = system: slow reacting substance of anaphylaxis (SRS-A); assay: SRS-A antagonism on isolated guinea pig ileum; set-up: species or system guinea pig ileum (SRS-A from rat); settings: rat SRS-A
Description: The compounds have been evaluated as direct antagonists of slow reacting substance of anaphylaxis (SRS-A) by assay using the isolated guinea pig ileum.
SRS-A rat was obtained from the peritoneal cavity of the rat after passive peritoneal anaphylaxis by a method based on that of R. P. Orange, D. J. Stechschulte and K. F. Austen, J. Immunology, 105 1087 (1970) as described by B. A. Spicer, J. W. Ross and H. Smith, Clin. exp. Immunol. 1975, 21, 419. The sensitizing serum containing reaginic antibody was produced in rats as described by B. A. Spicer, et. al. ibid.
2 ml of a 1 in 5 dilution of the sensitizing serum was injected by the peritoneal route into recipient rats and after 2 hours, 5 ml of tyrode solution containing 0.4 mg/ml ovalbumin (Sigma Grade III) and 50 μg/ml heparin was injected by the same route. Five minutes after challenge the rats were stunned and bled and the peritoneal fluids collected into polycarbonate tubes in ice. After centrifugation at 150 g for 5 minutes the supernatants were combined, heated in a boiling water bath for 5 minutes, cooled and stored at -20° C. The combined peritioneal fluids contained SRS-A and were used in the antagonism studies.
The SRS-A assays were carried out on isolated strips of guinea pig ileum in tyrode solution containing atropine 5 × 10^-7 M and mepyramine 10^-6 M as described by W. E. Brocklehurst, J. Physiology, 151, 416 (1960).
The activity of the antagonists was determined by their ability to reduce submaximal responses induced by SRS-A. The antagonists were added to a 4 ml bath in 0.1 ml volumes in aqueous solution half a minute before the addition of SRS-A and were present during induced contraction. Two or three concentrations of antagonists were used and the percentage inhibition of the SRS-A response plotted against the bath concentration of antagonist. The line of best fit was drawn and the concentration to cause 50% inhibition IC50 read graphically.

[2] = read-out: Rat PCA: Dose given i.v. to effect a 50% inhibition of the PCA response
[3] = isolated guinea pig ileum strips, tyrode with atropine and mepyramine, 50% inhibition per method, read-out: SRS-A antagonism on Guinea Pig Ileum: Approximate concentration to give inhibition of a than maximal response to SRS-A
[4] = as first table, unit inferred, isolated guinea pig ileum, read-out: SRS-A antagonism on Guinea Pig Ileum: Approximate concentration to give inhibition of a than maximal response to SRS-A
[5] = second results table, read-out: Rat PCA: Dose given i.v. to effect a 50% inhibition of PCA response
[6] = second results table, unit inferred, isolated guinea pig ileum, read-out: SRS-A antagonism on Guinea Pig ileum: Approximate concentration to give 50% inhibition of a less than maximal response to SRS-A

IC50 [1, 3]: 100 nM
Compound: Cc1ccccc1OCCCOc1ccc2c(O)c([N+](=O)[O-])c(=O)oc2c1 [Example 155, 4-Hydroxy-7-(3-[2-methylphenoxy]propoxy)-3-nitrocoumarin]
ED50 (PCA response; [2]): 1 to 2 mg/kg

IC50 [1, 4]: 100 nM
Compound: CCCc1cc(F)ccc1OCC(O)COc1ccc2c(O)c([N+](=O)[O-])c(=O)oc2c1 (stereo not drawn) [Example 164, 7-(3-[4-Fluoro-2-hydroxypropoxy)-4-hydroxy-3-nitro-coumarin]
ED50 (PCA response; [2]): 1 mg/kg

IC50 [1, 6]: 1000 nM
Compound: Cc1cc(C)c(C)c(OCCCOc2ccc3c(c2)C(=O)C([N+](=O)[O-])C3=O)c1 (stereo not drawn) [Example 184, 2-Nitro-5-[3-(2,3,5-trimethylphenoxy)propoxy]indan-1,3-dione]
ED50 (PCA response; [5]): 1 mg/kg

IC50 [1, 6]: 100 nM
Compound: O=C1c2ccc(OCCCOc3ccccc3)cc2C(=O)C1[N+](=O)[O-] (stereo not drawn) [Example 182, 2-Nitro-5-(3-phenoxypropoxy)indan-1,3-dione]
ED50 (PCA response; [5]): < 1 mg/kg

IC50 [1, 3]: 100 nM
Compound: CCCc1c(OCC(O)COc2ccc3c(O)c([N+](=O)[O-])c(=O)oc3c2CCC)ccc(C(C)=O)c1O (stereo not drawn) [Example 148, 7-(3-[4-Acetyl-3-hydroxy-2-n-propyl-phenoxy]-2-hydroxy-propoxy)-4-hydroxy-3-nitro-8-n-propyl-coumarin]
ED50 (PCA response; [2]): < 1 mg/kg

IC50 [1, 6]: 1000 nM
Compound: N#CC1C(=O)c2ccc(OCCCOc3ccccc3)cc2C1=O (stereo not drawn) [Example 188, 2-Cyano-5-(3-phenoxypropoxy)indan-1,3-dione]
ED50 (PCA response; [5]): > 2 mg/kg

IC50 [1, 6]: 1000 nM
Compound: N#Cc1c(O)c2ccc(OCCCOc3ccccc3)cc2oc1=O [Example 204, 3-Cyano-4-hydroxy-7-(3-phenoxypropoxy) coumarin]
ED50 (PCA response; [5]): 2 mg/kg

IC50 [1, 4]: 10 nM
Compound: CCCc1c(OCC(O)COc2ccc3c(O)c([N+](=O)[O-])c(=O)oc3c2C)ccc(C(C)=O)c1O (stereo not drawn) [Example 147, 7-(3-[4-Acetyl-3-hydroxy-2-n-propyl-phenoxy]-2-hydroxy-propoxy)-4-hydroxy-8-methyl-3-nitro-coumarin]
ED50 (PCA response; [2]): < 2 mg/kg

IC50 [1, 3]: 10000 nM
Compound: O=c1oc2cc(OCCCCCCOc3ccccc3)ccc2c(O)c1[N+](=O)[O-] [Example 154, 4-Hydroxy-3-nitro-7-(6-phenoxyhexoxy) coumarin]
ED50 (PCA response; [2]): 1 to 2 mg/kg

Further lines, the molecule ahead of its results:

Compound: CCCc1c(OCC(O)COc2ccc3c(O)c([N+](=O)[O-])c(=O)oc3c2)ccc(C(=O)CC)c1O (stereo not drawn) [Example 149]
ED50 (PCA response; [2]): 2 mg/kg

Compound: O=C1c2ccc(OCCCc3ccccc3)cc2C(=O)C1[N+](=O)[O-] (stereo not drawn) [Example 183, 2-Nitro-5-(3-phenylpropoxy)indan-1,3-dione]
ED50 (PCA response; [5]): < 1 mg/kg

Compound: CCCc1cc(C(C)=O)ccc1OCC(O)COc1ccc2c(O)c([N+](=O)[O-])c(=O)oc2c1 (stereo not drawn) [Example 142, 7-(3-[4-Acetyl-2-n-propylphenoxy]-2-hydroxypropoxy)-4-hydroxy-3-nitrocoumarin]
ED50 (PCA response; [2]): < 1 mg/kg

Compound: CCCc1c(O)c(C(C)=O)cc([N+](=O)[O-])c1OCC(O)COc1ccc2c(O)c([N+](=O)[O-])c(=O)oc2c1C (stereo not drawn) [Example 166, 7-[3-(4-Acetyl-3-hydroxy-6-nitro-2-n-propylphenoxy)-2-hydroxypropoxy]-4-hydroxy-8-methyl-3-nitrocoumarin]
ED50 (PCA response; [2]): < 1 mg/kg
IC50 [1, 4]: 100 nM

Compound: CCCc1c(O)c(C(C)=O)cc([N+](=O)[O-])c1OCCOc1ccc2c(O)c([N+](=O)[O-])c(=O)oc2c1 [Example 165, 7-[2-(4-Acetyl-3-hydroxy-6-nitro-2-n-propylphenoxy)ethoxy]-4-hydroxy-3-nitrocoumarin]
ED50 (PCA response; [2]): 1 mg/kg

Compound: CCc1cc(C(C)=O)c(O)cc1OCC(O)COc1ccc2c(O)c([N+](=O)[O-])c(=O)oc2c1 (stereo not drawn) [Example 145, 7-(3-[4-Acetyl-2-ethyl-5-hydroxy-phenoxy]-2-hydroxy-propoxy)-4-hydroxy-3-nitrocoumarin]
ED50 (PCA response; [2]): 2 mg/kg

Compound: O=c1oc2cc(OCCc3ccc(F)cc3)ccc2c(O)c1[N+](=O)[O-] [Example 117]
ED50 (PCA response; [2]): 1 mg/kg

Compound: CCCc1c(OCCOc2ccc3c(O)c([N+](=O)[O-])c(=O)oc3c2)ccc(C(C)=O)c1O [Example 127, 7-(2-[4-Acetyl-3-hydroxy-2-n-propylphenoxy]ethoxy)-4-hydroxy-3-nitrocoumarin]
ED50 (PCA response; [2]): ~2 mg/kg

Reference: US4136192A, “4-Hydroxy-3-nitro (cyano) coumarins” (Beecham Group Limited, priority 1975, dated 1979)
